SMILES strings stand for the structures.

The target of the test is T1, human M2 receptor (Homo sapiens, UniProt P08172).
T1 construct: expressed in transfected cells; host or cells: CHO-DUKX (CHO-DUKX-M2-GIRK)
T1 sequence (P08172 1-466): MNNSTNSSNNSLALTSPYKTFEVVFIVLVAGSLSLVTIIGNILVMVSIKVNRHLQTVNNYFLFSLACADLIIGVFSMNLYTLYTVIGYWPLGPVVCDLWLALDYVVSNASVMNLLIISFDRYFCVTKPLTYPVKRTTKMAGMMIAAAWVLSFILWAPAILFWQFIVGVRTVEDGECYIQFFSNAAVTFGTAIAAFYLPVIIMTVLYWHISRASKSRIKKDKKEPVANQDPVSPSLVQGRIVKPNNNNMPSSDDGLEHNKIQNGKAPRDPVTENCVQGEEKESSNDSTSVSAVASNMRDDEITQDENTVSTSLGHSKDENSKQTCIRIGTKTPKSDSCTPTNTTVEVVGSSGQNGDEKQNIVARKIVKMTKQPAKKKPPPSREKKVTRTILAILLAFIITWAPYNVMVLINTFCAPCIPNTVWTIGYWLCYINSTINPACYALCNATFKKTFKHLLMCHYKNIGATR
In words: Functional M2-GIRK1/4 activation test: allosteric potency (EC50) and efficiency at EC20 acetylcholine. The test is classed as cell-based. The conditions noted are these: CHO-DUKX-M2-GIRK cells; for EC50: voltage-sensitive dye, acetylcholine at EC20, in some cases mean of two or more determinations; for Emax / Efficiency: boosting of the acetylcholine effect at EC20 acetylcholine concentration. Put shortly: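 CHO-DUKX cells stably expressing human M2 and GIRK1/4; membrane potential tracked with voltage-sensitive dye at room temperature. Compound added 50 s before acetylcholine at its EC20, then hyperpolarization read 60 s. EC50 (allosteric potency) and efficiency (boost of EC20 ACh effect) from 4-parameter Hill fit.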

The compound `CN(C)c1nc2c(cc1F)c(=O)c(C(=O)NC(C)(C)C(F)(F)F)cn2-c1c(F)cc(F)cc1F` [Example 62, 7-(Dimethylamino)-6-fluoro-4-oxo-N-(1,1,1-trifluoro-2-methylpropan-2-yl)-1-(2,4,6-trifluoro-phenyl)-1,4-dihydro-1,8-naphthyridine-3-carboxamide] gave an EC50 of 4.1 nM and an Emax of 88%.

Consider `CN(CCO)c1nc2c(cc1F)c(=O)c(C(=O)N[C@@H](C1CC1)C(F)(F)F)cn2-c1c(F)cc(F)cc1F` [Example 55, N-[(1S)-1-Cyclopropyl-2,2,2-trifluoroethyl]-6-fluoro-7-[(2-hydroxyethyl)(methyl)amino]-4-oxo-1-(2,4,6-trifluorophenyl)-1,4-dihydro-1,8-naphthyridine-3-carboxamide], for which the EC50 was determined as 25 nM and the Emax stood at 96%.

On to `CC(C)(CC(F)(F)F)NC(=O)c1cn(-c2c(F)cc(F)cc2F)c2nc(N3C[C@@H](O)[C@@H](O)C3)c(F)cc2c1=O` [Example 91, 7-[(3R,4S)-3,4-Dihydroxypyrrolidin-1-yl]-6-fluoro-4-oxo-N-(4,4,4-trifluoro-2-methylbutan-2-yl)-1-(2,4,6-trifluorophenyl)-1,4-dihydro-1,8-naphthyridine-3-carboxamide], for which the EC50 stood at 6.5 nM and the Emax was 100%.

For the compound `Cc1cc(F)cc(C)c1-n1cc(C(=O)N[C@H](C2CC2)C(F)(F)F)c(=O)c2cc(F)c(N3C[C@@H](O)CC3=O)nc21` [Example 177, N-[(1R)-1-Cyclopropyl-2,2,2-trifluoroethyl]-6-fluoro-1-(4-fluoro-2,6-dimethylphenyl)-7-[(4S)-4-hydroxy-2-oxopyrrolidin-1-yl]-4-oxo-1,4-dihydro-1,8-naphthyridine-3-carboxamide], the EC50 amounted to 530 nM and the Emax amounted to 77%.

For the compound `CC[C@H](NC(=O)c1cn(-c2c(F)cc(F)cc2F)c2nc(N3CCOCC3)c(F)cc2c1=O)C(F)(F)F` [Example 151, 6-Fluoro-7-(morpholin-4-yl)-4-oxo-N-[(2S)-1,1,1-trifluorobutan-2-yl]-1-(2,4,6-trifluoro-phenyl)-1,4-dihydro-1,8-naphthyridine-3-carboxamide], the midpoint of the response, the EC50, lay at 24 nM and the Emax came out at 100%.

As for `CCC(COC(F)(F)F)NC(=O)c1cn(-c2c(F)cc(F)cc2F)c2nc(N3CC[C@H](O)C3)c(F)cc2c1=O` (single isomer, unassigned) [Example 111], the EC50 turned out to be 7.2 nM and the Efficiency was 99%.

As to `CC(C)(NC(=O)c1cn(-c2ncc(F)cc2F)c2nc(N3CC[C@H](O)C3)c(F)cc2c1=O)C(F)(F)F` [Example 154, 1-(3,5-Difluoropyridin-2-yl)-6-fluoro-7-[(3S)-3-hydroxypyrrolidin-1-yl]-4-oxo-N-(1,1,1-tri-fluoro-2-methylpropan-2-yl)-1,4-dihydro-1,8-naphthyridine-3-carboxamide], the EC50 came out at 97 nM and the Emax was found to be 100%.

`O=C(NC(C1CC1)C1CC1)c1cn(-c2c(F)cc(F)cc2F)c2nc(N3C[C@@H](O)[C@H](O)C3)c(F)cc2c1=O` [Example 21, N-(dicyclopropylmethyl)-7-[(3R,4R)-3,4-dihydroxypyrrolidin-1-yl]-6-fluoro-4-oxo-1-(2,4,6-trifluorophenyl)-1,4-dihydro-1,8-naphthyridine-3-carboxamide] showed an EC50 of 3 nM and an Emax of 100%.

In turn, `CC(C)(NC(=O)c1cn(-c2c(F)cc(F)cc2F)c2nc(N3CC[C@H](O)C3)c(F)cc2c1=O)C(F)(F)F` [Example 125, 6-Fluoro-7-[(3S)-3-hydroxypyrrolidin-1-yl]-4-oxo-N-(1,1,1-trifluoro-2-methylpropan-2-yl)-1-(2,4,6-trifluorophenyl)-1,4-dihydro-1,8-naphthyridine-3-carboxamide] registered an EC50 of 12 nM and an Emax of 97%.

The compound `CC[C@@H](NC(=O)c1cn(-c2c(F)cc(F)cc2F)c2nc(N3C[C@@H](O)[C@@H](O)C3)c(F)cc2c1=O)C(F)(F)F` [Example 155, 7-[(3R,4S)-3,4-Dihydroxypyrrolidin-1-yl]-6-fluoro-4-oxo-N-[(2R)-1,1,1-trifluorobutan-2-yl]-1-(2,4,6-trifluorophenyl)-1,4-dihydro-1,8-naphthyridine-3-carboxamide] had an EC50 of 11 nM and an Emax of 100%.

`CN(C)c1nc2c(cc1F)c(=O)c(C(=O)NC(C)(C)C)cn2-c1c(F)cc(F)cc1F` [Example 60, N-tert-Butyl-7-(dimethylamino)-6-fluoro-4-oxo-1-(2,4,6-trifluorophenyl)-1,4-dihydro-1,8-naphthyridine-3-carboxamide] came in with an EC50 of 3.6 nM and an Emax of 100%.

`CCN(CC(C)O)c1nc2c(cc1F)c(=O)c(C(=O)N[C@@H](C1CC1)C(F)(F)F)cn2-c1c(F)cc(F)cc1F` (single isomer, unassigned) [Example 67]: it took 10 nM to reach a half-maximal effect (EC50) and the Efficiency turned out to be 95%.

Turning to `CC(NC(=O)c1cn(-c2c(F)cc(F)cc2F)c2nc(N3CCC(CO)(CO)CC3)c(F)cc2c1=O)C(F)(F)C(F)(F)F` (single isomer, unassigned) [Example 187, 7-[4,4-bis(hydroxymethyl)piperidin-1-yl]-6-fluoro-4-oxo-N-(3,3,4,4,4-pentafluorobutan-2-yl)-1-(2,4,6-trifluorophenyl)-1,4-dihydro-1,8-naphthyridine-3-carboxamide], the 50% effective concentration (EC50) was 9.9 nM and the Emax stood at 90%.

For the compound `O=C(NC(C(F)(F)F)C(F)(F)F)c1cn(-c2c(F)cc(F)cc2F)c2nc(N3CCC[C@@H]3CO)c(F)cc2c1=O` [Example 199, 6-Fluoro-N-(1,1,1,3,3,3-hexafluoropropan-2-yl)-7-[(2R)-2-(hydroxymethyl)pyrrolidin-1-yl]-4-oxo-1-(2,4,6-trifluorophenyl)-1,4-dihydro-1,8-naphthyridine-3-carboxamide], the EC50 was found to be 14 nM and the Emax worked out at 100%.

In turn, `CCC(NC(=O)c1cn(-c2c(F)cc(F)cc2F)c2nc(N3C[C@@H](O)[C@H](O)C3)c(F)cc2c1=O)C(C)C` (single isomer, unassigned) [Example 30] returned an EC50 of 2.6 nM and an Efficiency of 100%.

Regarding `CC(NC(=O)c1cn(-c2c(F)cc(F)cc2F)c2nc(N3CC[C@H](O)[C@@H]3CO)c(F)cc2c1=O)C(F)(F)C(F)(F)F` (single isomer, unassigned) [Example 194], a half-maximal effect (EC50) was put at 31.5 nM and the Emax came out at 94%.

Compound `CCC(NC(=O)c1cn(-c2c(F)cc(F)cc2F)c2nc(N3CC[C@H](O)C3)c(F)cc2c1=O)C(C)C` (mixture of isomers) [Example 116, 6-Fluoro-7-[(3S)-3-hydroxypyrrolidin-1-yl]-N-[2-methylpentan-3-yl]-4-oxo-1-(2,4,6-trifluoro-phenyl)-1,4-dihydro-1,8-naphthyridine-3-carboxamide] came in with an EC50 of 3.5 nM and an Emax of 97%.

`CCC(NC(=O)c1cn(-c2c(F)cc(F)cc2F)c2nc(N3C[C@@H](O)[C@H](O)C3)c(F)cc2c1=O)C(C)C` (mixture of isomers) [Example 28, 7-[(3R,4R)-3,4-Dihydroxypyrrolidin-1-yl]-6-fluoro-N-(2-methylpentan-3-yl)-4-oxo-1-(2,4,6-trifluorophenyl)-1,4-dihydro-1,8-naphthyridine-3-carboxamide] displayed a concentration for a half-maximal effect (EC50) of 3.15 nM and an Emax of 100%.

For orientation: EC50 means the concentration at which the effect is half-maximal. A high value points to lower potency in that assay. What is called Emax is the size of the effect at its maximum, as opposed to the concentration needed.

These data come from patent US11472803B2, “7-substituted 1-aryl-naphthyridine-3-carboxylic acid amides and use thereof” (Bayer Aktiengesellschaft, priority 2016, dated 2022).
